{
  "source": "patent US11484512B2",
  "about": "“Nanoparticles formed of a polymer and terbinafine” (Blueberry Therapeutics Limited, priority 2017, dated 2022)",
  "key": {"[1]": {"test_system": "onychomycosis", "conditions": "following 3-6 months of dosing, oral; cited from earlier work"}, "[2]": {"test_system": "Microsporum species", "conditions": "25 strains tested; cited from earlier work"}, "[3]": {"test_system": "Trichophyton rubrum", "conditions": "72 strains tested; cited from earlier work"}, "[4]": {"test_system": "T. mentagrophytes", "assay": "Trychophyton mentagrophytes anti-fungal paper disc lawn assay", "format": "cell-based", "conditions": "5 days incubation", "method": "FIGS. 6A-6E are photographic images of yeast extract peptone dextrose (YEPD) agar plates with Trychophyton mentagrophytes after incubation for 4 days at 30° C. […] 40 μl of double distilled water or terbinafine solution of varying concentration was spotted onto each paper disc. The concentration of the terbinafine solutions used were: 0 μg/ml (control, FIG. 6A), 0.06 μg/ml (FIG. 6B), 0.6 μg/ml (FIG. 6C), 6.00 μg/ml (FIG. 6D) and 60.0 μg/ml (FIG. 6E); FIGS. 7A and 7B are photographic images of YEPD plates assessing the efficacy of BB2603 (terbinafine and PHMB nanoparticles) and terbinafine samples passing through healthy human nail against Trychophyton mentagrophytes A lawn of Trychophyton mentagrophytes was spread onto YEPD agar plates supplemented with 50 μg/ml chloramphenicol. The aqueous samples from the Franz cell collection chamber following 7 days treatment of healthy human nails with either 0.1 mg/ml terbinafine (FIG. 7A) or BB2603 (FIG. 7B) were spotted onto 10 mm paper discs. The discs were placed in the middle of the Trychophyton plates, which were then incubated at 30° C. for 5 days to allow the fungi to grow. […]"}, "[5]": {"test_system": "Trichophyron terestre", "conditions": "1 strain tested; cited from earlier work"}, "[6]": {"test_system": "Trichophyton species", "conditions": "27 strains tested; cited from earlier work"}, "[7]": {"test_system": "Epidermophyton floccosum", "conditions": "42 strains tested; cited from earlier work"}, "[8]": {"test_system": "Trichophyton interdigitale", "conditions": "11 strains tested; cited from earlier work"}, "[9]": {"conditions": "cited from earlier work"}, "[10]": {"test_system": "Trichophron verrucosum", "conditions": "17 strains tested; cited from earlier work"}, "[11]": {"test_system": "Trichophron mentagrophytes", "conditions": "cited from earlier work"}, "[12]": {"test_system": "Microsporum canis", "conditions": "49 strains tested; cited from earlier work"}, "[13]": {"assay": "Franz cell nail penetration, single dose (constant exposure)", "format": "in vitro ADME, human", "method": "Nail clippings were soaked in water overnight at 30° C. and dried briefly. A 3 mm diameter punch was used to take disc biopsies of the nail clippings. Each nail disc was added to a Franz cell and an upper chamber of the cell attached. 40 μl of the following formulations was added to the upper chambers: 0.3 mg/ml PHMB+0.1 mg/ml terbinafine; or 10 mg/ml terbinafine. Lower collection chambers of the Franz cells were filled with water (approximately 600 μl) and the hole in the base of the sample chamber also filled with ddH2O to prevent bubbles forming beneath the nail. The upper sample chamber was carefully placed into the collection chamber ensuring not to introduce any air bubbles. Excess liquid from the collection chamber was expelled at this point leaving a final volume of liquid in the lower chamber of 500 μl. […] The nail discs from the Franz cell were also analysed for the presence of terbinafine as follows: the remaining test sample was removed from the upper sample chamber and discarded and the sample chamber washed 5 times with 100 μl ddH2O, with each wash being discarded, in order to remove any residual test solution remaining in the sample chamber. […] After 7 days, samples from the underside of the nail (ethanol washes) were collected and analysed by LC-MS/MS. […] Levels of terbinafine were quantified against drug standards. […]"}},
  "note": "Where two headings read alike, the source gives them in different places.",
  "data": [
    {"smiles": "CN(C/C=C/C#CC(C)(C)C)Cc1cccc2ccccc12", "note": "[terbinafine]", "values": [
      {"measurement": "cure", "setting": "[1]", "value": "> 80", "unit": "%"},
      {"measurement": "MIC range", "setting": "[2]", "value": "2 to 70", "unit": "ng/mL"},
      {"measurement": "MIC range", "setting": "[3]", "value": "1 to 38", "unit": "ng/mL"},
      {"measurement": "MIC", "setting": "[4]; Trichophyton mentagrophytes, 120 h, 30° C.", "value": 600, "unit": "ng/mL"},
      {"measurement": "zone of clearance with Franz cell aqueous sample passed through nail", "setting": "[4]; collection chamber sample after 7 days nail treatment", "value": "no effect"},
      {"measurement": "MIC range", "setting": "[5]", "value": 2, "unit": "ng/mL"},
      {"measurement": "MIC range", "setting": "[6]", "value": "≤60", "unit": "ng/mL"},
      {"measurement": "MIC range", "setting": "[7]", "value": "1 to 47", "unit": "ng/mL"},
      {"measurement": "MIC range", "setting": "[8]", "value": "2 to 28", "unit": "ng/mL"},
      {"measurement": "concentration in nails following oral dosing", "setting": "[9]; after 3 weeks", "value": "about 0.25 μg/g"},
      {"measurement": "concentration in nails following oral dosing", "setting": "[9]; after 18 months", "value": 0.55, "unit": "µg/g"},
      {"measurement": "concentration in nails following oral dosing", "setting": "[9]; after 7 days treatment", "value": 0.1, "unit": "µg/g"},
      {"measurement": "MIC range", "setting": "[10]", "value": "1 to 6", "unit": "ng/mL"},
      {"measurement": "MIC range", "setting": "[11]; 32 strains tested", "value": "1 to 6", "unit": "ng/mL"},
      {"measurement": "previously reported MIC", "setting": "[11]; liquid MIC assay", "value": 6, "unit": "ng/mL"},
      {"measurement": "MIC range", "setting": "[12]", "value": "6 to 80", "unit": "ng/mL"},
      {"measurement": "concentration of terbinafine in ethanol washes of the underside of the nail", "setting": "[13]; 0.1 mg/ml, 30% (v/v) ethanol, 7 days, single dose, BB2603 value is median", "value": "< 0.1", "unit": "ng/mL"},
      {"measurement": "median concentration of drug in dissolved nails", "setting": "[13]; after 7 days, FIGS. 4 and 5A-5B", "value": "approximately 0.5 mg/g"}
    ]}
  ]
}
